The nature of data set [1]: Solubility measurements of Compound A HCl salt in 250 mL SGF with citric acid pre-dissolved. Format: physicochemical. The protocol:
FIG. 2 describes the solubility measurements for Compound A HCl salt in 250 mL of SGF with various amounts of citric acid anhydrous pre-dissolved.
Within this formulation the amount of citric acid anhydrous available is 160.44 mg (Target fill weight for the capsule is 382.0 mg)

Data set [2] in a line: Clinical studies with Compound A (exposure among patients). Format: in vivo. From the text: The formulations of the instant invention have advantages over other formulations of c-Met kinase inhibitors. […] Based upon the sharp dependence of solubility on pH, it can be postulated that the performance of these formulations can vary based on variability in gastric pH. […] Exposure can vary due to many factors, including whether the inhibitor is taken with or without food. The formulations of the instant invention give in vivo exposures to the drug that are less sensitive to changes in gastric pH than other formulations.

On to `Cn1cc(-c2cnc3ccc4ccc(CS(=O)(=O)NCc5ccccn5)cc4c(=O)c3c2)cn1` [Compound A, 1-[3-(1-Methyl-1H-pyrazol-4-yl)-5-oxo-5H-benzo[4,5]cyclohepta[1,2-b]pyridin-7-yl]-N-(pyridin-2-ylmethyl)methanesulfonamide], for which the maximum solubility result in data set [1] (300 mg of citric acid fully dissolved in 250 mL of SGF pH 3.0, Compound A HCl salt (FIG. 2)) was “approximately 15 mg”. The “% dissolved equated from maximum solubility” value in data set [1] (for a 110 mg potency capsule, 300 mg citric acid pre-dissolved in 250 mL SGF pH 3.0) came out at 14%. For the same molecule, the “variability in Compound A exposure among patients” value in data set [2] is given as “high variability”. Further, the “exposure in patients concomitantly taking antacids” value in data set [2] (some patients with high gastric pH (antacids)) is recorded as “lower exposures”.

The values above are taken from patent publication US9238571B2, “Formulations for c-Met kinase inhibitors” (Merck Sharp & Dohme Limited, priority 2009, dated 2016).
